Test results taken from patent publication EP1223171A1, “Antimicrobial 5-substituted-3-isothiazolone compounds and methods of use” (Rohm and Haas, priority 2001, dated 2002).
In brackets after ≈: the same amount, converted by molar mass.

Assays:
Assay in all cases: high resolution minimum inhibitory concentration (HRMIC) test
Assay type in all cases: cell-based
Escherichia coli 8739 = conditions: for better control versus Gram-negative (E. coli) bacteria than compound 6: ratio of MIC relative to compound 6 (MIC >1000 ppm)
Procedure: (§1) Biological Activity: certain compounds of the present invention were tested for activity against three microorganisms, Escherichia coli 8739 (Gram-negative bacterium) and Staphylococcus aureus 6538 (Gram-positive bacterium) and Aspergillus niger 16404.
(§2) The lowest concentration of test compound required to inhibit Staphylococcus aureus 6538, Escherichia coli 8739 and Aspergillus niger 16404 was determined by a high resolution minimum inhibitory concentration (HRMIC) test. Varying amounts of the test compounds were added to minimal salts glucose medium (see T. Maniatis, E.F. Fritsch and J. Sambrook, Molecular Cloning, p 68 (1982)) supplemented with 0.1% yeast extract (M9GY) in a 96-well microtiter plate. Ten-fold serial dilutions were performed on a Biomek™ 2000 Workstation to obtain a range of closely spaced concentrations of test compound as shown in Table 1 (based on dilutions of a 10,000 ppm active ingredient stock solution of the test compound). The plates were inoculated with cell suspension of inoculum and adjusted to provide about 10^6 CFU (colony forming units)/ml in each well. The microtiter plates were incubated at 30°C for 24 hours and then checked (optical density at 650 nm using a microplate reader) for the presence or absence of microbial growth in each well. […] Data reported (ppm active ingredient) are the average of multiple determinations (see Table 2).

Aspergillus niger 16404 = conditions: ppm active ingredient, M9GY medium, about 10^6 CFU/ml, 30°C for 24 hours, average of multiple determinations
Procedure: as §1, §2

[1] = system: Staphylococcus aureus 6538
Procedure: as §1, §2

SMILES	better control versus Gram-negative (E. coli) bacteria than compound 6 (Escherichia coli 8739)	MIC (Escherichia coli 8739; Escherichia coli, 8739, ppm active ingredient, M9GY medium, about 10^6 CFU/ml, 30°C for 24 hours, average of multiple determinations, read-out: MIC (ppm) E. coli) [µg/mL]	MIC (Aspergillus niger 16404) [µg/mL]	MIC ([1]; Staphylococcus aureus, 6538, ppm active ingredient, M9GY medium, about 10^6 CFU/ml, 30°C for 24 hours, average of multiple determinations, read-out: MIC (ppm) S. aur) [µg/mL]	better control versus Gram-positive (S. aur) bacteria than compound 6 ([1]; ratio of MIC relative to compound 6) [fold]
CCCCCCCCn1sc(Sc2cccc[n+]2[O-])c(Cl)c1=O [Compound 5, [4-chloro-2-n-octyl-3-isothiazolon-5-yl]-(1-oxypyridin-2-yl)sulfide]	at least 30 fold				
Cn1sc(Sc2cccc[n+]2[O-])cc1=O [Compound 3, [2-methyl-3-isothiazolon-5-yl]-(1-oxypyridin-2-yl)sulfide]	≥ 160 fold	6 (≈ 25 µM)	60 (≈ 250 µM)	1 (≈ 4.16 µM)	5
